Experimental data: US9645154B2, “Method for detecting cancer cell” (ARKRAY, Inc., priority 2010, dated 2017)

System: Blood cells
Experiment: Labeled sugar incorporation, fluorescence microscopy image analysis (false-positive/negative rate)
Type: cell-based, human
Excerpt: Blood was collected from a human subject using a vacuum blood collection tube (with EDTA•2K). Blood cells were separated using HetaSep (STEMCELL Technologies) in accordance with manufacturer's instructions.
When performing the hemolyzing treatment, the blood cell fraction collected as described above was hemolyzed using ammonium chloride (STEMCELL Technologies) according to the manufacture's manuals.
The number of the cells was counted for each cell line using a hemacytometer in accordance with the conventional method, and then 10^5 to 10^6 cells per sample (cell suspension) was aliquoted. Each of the sample was centrifuged to remove the supernatant. Subsequently, 2-NBDG (Wako Pure Chemical Industries, Ltd.; at the final concentration given in Table 3 or 4) dissolved in Dulbecco's PBS (−) was added thereto, and the cells were suspended well. After the reaction, Dulbecco's PBS (−) was added to the mixture, and the resultant was centrifuged to remove the supernatant. The cells were resuspended with Dulbecco's PBS (−) and centrifuged, and the supernatant was removed again. The steps of resuspending cells with Dulbecco's PBS (−), centrifuging and removing the supernatant were then repeated 2 to 3 times, thereby washing the cells thoroughly. The cells were resuspended with Dulbecco's PBS (−), the concentration thereof was adjusted, and then added dropwise to a 384-well plate. The plate was centrifuged to spin down the cells. The image was captured with a fluorescence microscope (Nikon Corp.) using B-2A filter combination (Nikon Corp.). The B-2A set covers the following wavelengths. EX (excitation wavelength): 475±15 nm, DM: 505 nm or longer, BA (fluorescence wavelength) 520 nm or longer.
The acquired images were analyzed using an image analysis software NIS-ELEMENTS (trade name, Nikon Corp.) to evaluate the fluorescence intensity of the cell. […]

[1] = fresh blood, Mean luminance, hemolyzed, 10 mM, 5 min, 23° C.
[2] = fresh blood, Total luminance, hemolyzed, 10 mM, 5 min, 23° C.
[3] = hemolyzed, 10 mM, 5 min, 23° C.
[4] = hemolyzed, 10 mM, 5 min, 23° C., threshold value 280 (Colon adenocarcinoma)
[5] = hemolyzed, 10 mM, 5 min, 23° C., threshold value 330 (Breast adenocarcinoma)
[6] = hemolyzed, 10 mM, 5 min, 23° C., threshold value 370 (Alveolar epithelial cancer)
[7] = hemolyzed, 10 mM, 5 min, 23° C., threshold value 370 (Fibrosarcoma)
[8] = hemolyzed, 10 mM, 5 min, 23° C., threshold value 490 (Gastric cancer)
[9] = hemolyzed, 10 mM, 5 min, 23° C., threshold value 880 (Prostate cancer)
[10] = hemolyzed, 0.1 mM, 37° C., 30 min, threshold value 380
[11] = hemolyzed, 1 mM, 37° C., 30 min, threshold value 520
[12] = hemolyzed, 10 mM, 37° C., 30 min, threshold value 1150
[13] = hemolyzed, 4° C., 10 mM, 5 min, threshold value 640
[14] = hemolyzed, 23° C., 10 mM, 5 min, threshold value 640
[15] = hemolyzed, 37° C., 10 mM, 5 min, threshold value 750
[16] = hemolyzed, 5 min, 10 mM, 37° C., threshold value 570
[17] = hemolyzed, 30 min, 10 mM, 37° C., threshold value 880
[18] = hemolyzed, 60 min, 10 mM, 37° C., threshold value 750
[19] = not hemolyzed, 10 mM, 5 min, 23° C.
[20] = single, Glucose conc.: 1 mM, Temp.: 37° C., Time: 30 min, threshold value 280 (Colon adenocarcinoma)
[21] = single, Glucose conc.: 1 mM, Temp.: 37° C., Time: 30 min, threshold value 370 (Fibrosarcoma)
[22] = single, Glucose conc.: 1 mM, Temp.: 37° C., Time: 30 min, threshold value 490 (Gastric cancer)
[23] = without hemolyzing treatment, 0.1 mM, 37° C., 30 min, threshold value 280
[24] = without hemolyzing treatment, 1 mM, 37° C., 30 min, threshold value 330
[25] = without hemolyzing treatment, 10 mM, 37° C., 30 min, threshold value 450 (concentration series)
[26] = without hemolyzing treatment, 4° C., 10 mM, 5 min, threshold value 310
[27] = without hemolyzing treatment, 23° C., 10 mM, 5 min, threshold value 360
[28] = without hemolyzing treatment, 37° C., 10 mM, 5 min, threshold value 390
[29] = without hemolyzing treatment, 5 min, 10 mM, 37° C., threshold value 380
[30] = without hemolyzing treatment, 30 min, 10 mM, 37° C., threshold value 450 (time series)
[31] = without hemolyzing treatment, 60 min, 10 mM, 37° C., threshold value 500

O=[N+]([O-])c1ccc(N[C@H]2C(O)O[C@H](CO)[C@@H](O)[C@@H]2O)c2nonc12 (stereo partly drawn) [2-NBDG, 2-[N-(7-nitrobenz-2-oxa-1,3-diazol-4-yl)amino]-2-deoxy-D-glucose]
Negative rate (Blood cells) [1]: 95.2% | Positive rate of cancer cells (Blood cell data) [1]: 4.8% | Negative rate (Blood cells) [2]: 91.0% | Positive rate of cancer cells (Blood cell data) [2]: 9.0% | Negative rate (Blood cells (fresh blood)) [3]: 95.2% | Positive rate (Blood cells (fresh blood)) [3]: 4.8% | Negative rate (Blood cells (fresh blood)) [4]: 96.6% | Positive rate (Blood cells (fresh blood)) [4]: 3.4% | Negative rate (Blood cells (fresh blood)) [5]: 94.2% | Positive rate (Blood cells (fresh blood)) [5]: 5.8% | Negative rate (Blood cells (fresh blood)) [6]: 98.3% | Positive rate (Blood cells (fresh blood)) [6]: 1.7% | Negative rate (Blood cells (fresh blood)) [7]: 95.2% | Positive rate (Blood cells (fresh blood)) [7]: 4.8% | Negative rate (Blood cells (fresh blood)) [8]: 100.0% | Positive rate (Blood cells (fresh blood)) [8]: 0.0% | Negative rate (Blood cells (fresh blood)) [9]: 100.0% | Positive rate (Blood cells (fresh blood)) [9]: 0.0% | Negative rate (Blood cells) [10]: 100.0% | Positive rate (Blood cells) [10]: 0.0% | Negative rate (Blood cells) [11]: 98.9% | Positive rate (Blood cells) [11]: 1.1% | Negative rate (Blood cells) [12]: 100.0% | Positive rate (Blood cells) [12]: 0.0% | Negative rate (Blood cells) [13]: 100.0% | Positive rate (Blood cells) [13]: 0.0% | Negative rate (Blood cells) [14]: 99.2% | Positive rate (Blood cells) [14]: 0.8% | Negative rate (Blood cells) [15]: 98.5% | Positive rate (Blood cells) [15]: 1.5% | Negative rate (Blood cells) [16]: 99.1% | Positive rate (Blood cells) [16]: 0.9% | Negative rate (Blood cells) [17]: 99.7% | Positive rate (Blood cells) [17]: 0.3% | Negative rate (Blood cells) [18]: 97.1% | Positive rate (Blood cells) [18]: 2.9% | Negative rate (Blood cells (fresh blood)) [19]: 97.9% | Positive rate (Blood cells (fresh blood)) [19]: 2.1% | Negative rate (Blood cells (fresh blood)) [20]: 96.6% | Positive rate (Blood cells (fresh blood)) [20]: 3.4% | Negative rate (Blood cells (fresh blood)) [21]: 95.2% | Positive rate (Blood cells (fresh blood)) [21]: 4.8% | Negative rate (Blood cells (fresh blood)) [22]: 100.0% | Positive rate (Blood cells (fresh blood)) [22]: 0.0% | Negative rate (Blood cells) [23]: 100.0% | Positive rate (Blood cells) [23]: 0.0% | Negative rate (Blood cells) [24]: 98.5% | Positive rate (Blood cells) [24]: 1.5% | Negative rate (Blood cells) [25]: 98.9% | Positive rate (Blood cells) [25]: 1.1% | Negative rate (Blood cells) [26]: 99.1% | Positive rate (Blood cells) [26]: 0.9% | Negative rate (Blood cells) [27]: 97.9% | Positive rate (Blood cells) [27]: 2.1% | Negative rate (Blood cells) [28]: 99.0% | Positive rate (Blood cells) [28]: 1.0% | Negative rate (Blood cells) [29]: 98.6% | Positive rate (Blood cells) [29]: 1.4% | Negative rate (Blood cells) [30]: 98.9% | Positive rate (Blood cells) [30]: 1.1% | Negative rate (Blood cells) [31]: 91.2% | Positive rate (Blood cells) [31]: 8.8%
